Data as given in US20230416275A1, “MODULATORS OF CYSTIC FIBROSIS TRANSMEMBRANE CONDUCTANCE REGULATOR” (VERTEX PHARMACEUTICALS INCORPORATED, priority 2020, published 2023).

Experiments:
[1] = target: CFTR-mediated chloride transport in human intestinal epithelial enteroid cells (Homo sapiens, UniProt P13569); experiment: Membrane potential dye, Enteroid Assay A; assay type: cell-based; settings: for Ent. A Max Activity (%): % of chloride transport of triple combination control (3 μM N-[(6-amino-2-pyridyl)sulfonyl]-6-(3-fluoro-5-isobutoxy-phenyl)-2-[(4S)-2,2,4-trimethylpyrrolidin-1-yl]pyridine-3-carboxamide, 3 μM tezacaftor, 300 nM acute ivacaftor); for EC50: enteroid cells, 18-24 hours incubation, acute 10 μM forskolin and 300 nM ivacaftor, read-out: Ent. A EC50
Sequence of CFTR-mediated chloride transport in human intestinal epithelial enteroid cells (P13569 with tags, fused parts or gaps DEL508-508): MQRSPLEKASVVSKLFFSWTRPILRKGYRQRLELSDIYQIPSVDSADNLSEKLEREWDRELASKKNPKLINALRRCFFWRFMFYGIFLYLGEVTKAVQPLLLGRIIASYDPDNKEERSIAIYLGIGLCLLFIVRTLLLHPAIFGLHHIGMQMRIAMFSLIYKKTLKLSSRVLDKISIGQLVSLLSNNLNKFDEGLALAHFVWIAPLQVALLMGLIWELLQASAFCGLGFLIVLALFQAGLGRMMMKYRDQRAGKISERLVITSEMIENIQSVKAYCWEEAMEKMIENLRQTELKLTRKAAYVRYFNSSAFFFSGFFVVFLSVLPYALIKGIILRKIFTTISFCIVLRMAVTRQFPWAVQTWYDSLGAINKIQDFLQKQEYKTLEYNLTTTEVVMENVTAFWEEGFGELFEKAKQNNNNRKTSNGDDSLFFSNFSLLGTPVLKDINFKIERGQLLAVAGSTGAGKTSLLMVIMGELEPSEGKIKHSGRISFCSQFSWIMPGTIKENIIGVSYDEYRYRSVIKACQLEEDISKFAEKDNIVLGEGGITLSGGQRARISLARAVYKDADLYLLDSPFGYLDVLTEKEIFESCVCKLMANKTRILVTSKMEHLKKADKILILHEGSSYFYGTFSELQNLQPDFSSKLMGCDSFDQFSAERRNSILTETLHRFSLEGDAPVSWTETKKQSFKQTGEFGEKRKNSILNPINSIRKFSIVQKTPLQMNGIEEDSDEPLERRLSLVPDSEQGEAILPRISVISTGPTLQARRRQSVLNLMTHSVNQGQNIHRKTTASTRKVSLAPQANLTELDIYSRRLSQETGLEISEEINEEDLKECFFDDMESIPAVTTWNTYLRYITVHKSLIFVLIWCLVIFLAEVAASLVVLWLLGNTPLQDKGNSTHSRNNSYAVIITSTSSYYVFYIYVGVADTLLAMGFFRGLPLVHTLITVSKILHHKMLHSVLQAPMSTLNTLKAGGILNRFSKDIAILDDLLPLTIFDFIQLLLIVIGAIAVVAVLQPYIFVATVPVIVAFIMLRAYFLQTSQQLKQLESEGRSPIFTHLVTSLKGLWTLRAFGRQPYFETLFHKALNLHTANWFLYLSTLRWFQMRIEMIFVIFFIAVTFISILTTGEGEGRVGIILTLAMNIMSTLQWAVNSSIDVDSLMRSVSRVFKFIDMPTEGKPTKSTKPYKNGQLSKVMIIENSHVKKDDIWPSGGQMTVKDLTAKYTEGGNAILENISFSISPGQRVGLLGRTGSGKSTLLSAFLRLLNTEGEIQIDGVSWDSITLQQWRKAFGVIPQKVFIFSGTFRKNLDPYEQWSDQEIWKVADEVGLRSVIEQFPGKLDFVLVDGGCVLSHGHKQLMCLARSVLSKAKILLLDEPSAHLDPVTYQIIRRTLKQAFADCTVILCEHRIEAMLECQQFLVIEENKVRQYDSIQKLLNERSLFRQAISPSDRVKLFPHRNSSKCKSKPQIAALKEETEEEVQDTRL
Method: Base medium (ADF+++) consisted of Advanced DMEM/Ham's F12, 2 mM Glutamax, 10 mM HEPES, […] penicillin/streptomycin.
Intestinal enteroid maintenance medium (IEMM) consisted of ADF+++, 1×B27 supplement, 1×N2 supplement, 1.25 mM N-acetyl cysteine, 10 mM Nicotinamide, 50 ng/mL hEGF, 10 nM Gastrin, 1 μg/mL hR-spondin-1, 100 ng/mL hNoggin, TGF-b type 1 inhibitor A-83-01, 100 μg/mL Primocin, 10 μM P38 MAPK inhibitor SB202190.
Bath 1 Buffer consisted of 1 mM MgCl2, 160 mM NaCl, 4.5 mM KCl, 10 mM HEPES, 10 mM Glucose, 2 mM CaCl2.
Chloride Free Buffer consisted of 1 mM Magnesium Gluconate, 2 mM Calcium Gluconate, 4.5 mM Potassium Gluconate, 160 mM Sodium Gluconate, 10 mM HEPES, 10 mM Glucose.
Bath1 Dye Solution consisted of Bath 1 Buffer, 0.04% Pluronic F127, 20 μM Methyl Oxonol, 30 μM CaCCinh-A01, 30 μM Chicago Sky Blue.
Chloride Free Dye Solution consisted of Chloride Free Buffer, 0.04% Pluronic F127, 20 μM Methyl Oxonol, 30 μM CaCCinh-A01, 30 μM Chicago Sky Blue.
Chloride Free Dye Stimulation Solution consisted of Chloride Free Dye Solution, 10 μM forskolin, 100 μM IBMX, and 300 nM Compound III.
Human intestinal epithelial enteroid cells were obtained from the Hubrecht Institute for Developmental Biology and Stem Cell Research, Utrecht, The Netherlands and expanded in T-Flasks as previously described (Dekkers J F, Wiegerinck C L, de Jonge H R, Bronsveld I, Janssens H M, de Winter-de Groot K M, Brandsma A M, de Jong N W M, Bijvelds M J C, Scholte B J, Nieuwenhuis E E S, van den Brink S, Clevers H, van der Ent C K, Middendorp S and M Beekman J M. A functional CFTR assay using primary cystic fibrosis intestinal organoids. Nat Med. 2013 July; 19(7):939-45).
c. Enteroid Cell Harvesting and Seeding
Cells were recovered in cell recovery solution, collected by centrifugation at 650 rpm for 5 minutes at 4° C., resuspended in TrypLE and incubated for 5 minutes at 37° C. Cells were then collected by centrifugation at 650 rpm for 5 minutes at 4° C. and resuspended in IEMM containing 10 μM ROCK inhibitor (RI). The cell suspension was passed through a 40 μm cell strainer and resuspended at 1×10^6 cells/mL in IEMM containing 10 μM RI. Cells were seeded at 5000 cells/well into multi-well plates and incubated for overnight at 37° C., 95% humidity and 5% CO2 prior to assay.
d. Membrane Potential Dye, Enteroid Assay A
Enteroid cells were incubated with test compound in IEMM for 18-24 hours at 37° C., 95% humidity and 5% CO2. […] Briefly, cells were washed 5 times in Bath 1 Buffer. Bath 1 Dye Solution was added, and the cells were incubated for 25 minutes at room temperature. Following dye incubation, cells were washed 3 times in Chloride Free Dye Solution. Chloride transport was initiated by addition of Chloride Free Dye Stimulation Solution and the fluorescence signal was read for 15 minutes. […] Chloride transport was then expressed as a percentage of the chloride transport following treatment with 3 μM N-[(6-amino-2-pyridyl)sulfonyl]-6-(3-fluoro-5-isobutoxy-phenyl)-2-[(4S)-2,2,4-trimethylpyrrolidin-1-yl]pyridine-3-carboxamide, 3 μM (R)-1-(2,2-difluorobenzo[d][1,3]dioxol-5-yl)-N-(1-(2,3-dihydroxypropyl)-6-fluoro-2-(1-hydroxy-2-methylpropan-2-yl)-1H-indol-5-yl)cyclopropanecarboxamide and 300 nM acute N-[2,4-bis(1,1-dimethylethyl)-5-hydroxyphenyl]-1,4-dihydro-4-oxoquinoline-3-carboxamide triple combination control (% Activity).

F508del in NIH 3T3 cells = target: T1, F508del in NIH 3T3 cells (Homo sapiens, UniProt P13569, DEL508-508); experiment: 3T3 assay: membrane potential optical assay for F508del correction; assay type: cell-based, mouse; settings: for EC50: compound incubation 18-24 hours at 37° C., forskolin activation, read-out: 3T3 EC50; for Emax: NIH3T3, F508del NIH 3T3 cells, read-out: 3T3 Max Activity (%)
T1 construct: expressed in transfected cells
T1 sequence (P13569 with tags, fused parts or gaps DEL508-508): as above
Source text: a. Membrane Potential Optical Methods for Assaying F508del Modulation Properties of Compounds
The assay utilizes fluorescent voltage sensing dyes to measure changes in membrane potential using a fluorescent plate reader (e.g., FLIPR III, Molecular Devices, Inc.) as a readout for increase in functional F508del in NIH 3T3 cells. The driving force for the response is the creation of a chloride ion gradient in conjunction with channel activation by a single liquid addition step after the cells have previously been treated with compounds and subsequently loaded with a voltage sensing dye.
b. Identification of Corrector Compounds
To identify correctors of F508del, a single-addition HTS assay format was developed. This HTS assay utilizes fluorescent voltage sensing dyes to measure changes in membrane potential on the FLIPR III as a measurement for increase in gating (conductance) of F508del in F508del NIH 3T3 cells. The F508del NIH 3T3 cell cultures were incubated with the corrector compounds at a range of concentrations for 18-24 hours at 37° C., and subsequently loaded with a redistribution dye. The driving force for the response is a Cl^− ion gradient in conjunction with channel activation with forskolin in a single liquid addition step using a fluorescent plate reader such as FLIPR III.
Bath Solution #1: (in mM) NaCl 160, KCl 4.5, CaCl2 2, MgCl2 1, HEPES 10, pH 7.4 with NaOH.
Chloride-free bath solution: Chloride salts in Bath Solution #1 (above) are substituted with gluconate salts.
NIH3T3 mouse fibroblasts stably expressing F508del are used for optical measurements of membrane potential. The cells are maintained at 37° C. in 5% CO2 and 90% humidity in Dulbecco's modified Eagle's medium supplemented with 2 mM glutamine, 10% fetal bovine serum, 1×NEAA, b-ME, 1× pen/strep, and 25 mM HEPES in 175 cm^2 culture flasks. For all optical assays, the cells were seeded at ˜20,000/well in 384-well Matrigel-coated plates. For the correction assays, the cells are cultured at 37° C. with and without compounds for 16-24 hours.

[2] = efficacy compared to lumacaftor in combination with acutely added 300 nM Ivacaftor

Row | SMILES | Ent. A Max Activity (%) [1] | EC50 [1] | EC50 (F508del in NIH 3T3 cells; F508del NIH 3T3 cells) | Emax (F508del in NIH 3T3 cells; [2]) | 3T3 Max Activity (%) (F508del in NIH 3T3 cells; F508del NIH 3T3 cells, efficacy compared to lumacaftor in combination with acutely added 300 nM Ivacaftor)
1 | Cc1cccc(C)c1-c1cc2nc(n1)NS(=O)(=O)c1cccc(c1)NC(=O)[C@@H]1C[C@@H](CN(CCCCC(C)(C)C)C1)O2 [Compound 21] | ++ (++ is 30-60%) | < 1000 nM | < 1000 nM | > 60% | –
2 | Cc1cc2cc(c1)C(=O)Nc1cccc(c1)S(=O)(=O)Nc1nc(cc(-c3c(C)cccc3C)n1)O2 [Compound 110] | ++ (++ is 30-60%) | 1000 to 3000 nM | < 1000 nM | > 60% | –
3 | O=C1Nc2cccc(c2)S(=O)(=O)Nc2nc(cc(-c3cccc4ccccc34)n2)Oc2cccc1c2 [Compound 58, 5-(1-Naphthyl)-9,9-dioxo-2-oxa-9λ^6-thia-6,8,15,23-tetraazatetracyclo[15.3.1.13,7.110,14]tricosa-1(20),3,5,7(23),10(22),11,13,17(21),18-nonaen-16-one] | ++ (++ is 30-60%) | 1000 to 3000 nM | < 1000 nM | > 60% | –
4 | Cc1cccc(C)c1-c1cc2nc(n1)NS(=O)(=O)c1cccc(c1)NC(=O)[C@@H]1C[C@@H](CN(C(=O)NC(C)(C)C)C1)O2 [Compound 44] | +++ (+++ is >60%) | 3000 to 30000 nM | < 1000 nM | > 60% | –
5 | Cc1cccc(C)c1-c1cc2nc(n1)NS(=O)(=O)c1cccc(c1)NC(=O)[C@H]1CCC[C@H](C1)O2 (single isomer, unassigned) [Compound 69, 5-(2,6-dimethylphenyl)-9,9-dioxo-2-oxa-9λ^6-thia-6,8,15,23-tetraazatetracyclo[15.3.1.13,7.110,14]tricosa-3,5,7(23),10(22),11,13-hexaen-16-one] | ++ (++ is 30-60%) | 1000 to 3000 nM | < 1000 nM | – | +++ (+++ is >60%)
6 | Cc1cccc(C)c1-c1cc2nc(n1)NS(=O)(=O)c1cccc(c1)NC(=O)[C@@H]1C[C@@H](CN(C3CCCCC3)C1)O2 [Compound 10, (3S,7R)-5-cyclohexyl-19-(2,6-dimethylphenyl)-2-oxa-15λ^6-thia-5,9,16,18,21-pentaazatetracyclo[15.3.1.13,7.110,14]tricosa-1(21),10(22),11,13,17,19-hexaene-8,15,15-trione] | ++ (++ is 30-60%) | 1000 to 3000 nM | < 1000 nM | – | –
7 | Cc1cccc(C)c1-c1cc2nc(n1)NS(=O)(=O)c1cccc(c1)NC(=O)[C@@H]1C[C@@H](CN(CCC(C)(C)C)C1)O2 [Compound 5, (3S,7R)-5-(3,3-Dimethylbutyl)-19-(2,6-dimethylphenyl)-2-oxa-15λ^6-thia-5,9,16,18,21-pentaazatetracyclo[15.3.1.13,7.110,14]tricosa-1(20),10,12,14(22),17(21),18-hexaene-8,15,15-trione] | +++ (+++ is >60%) | < 1000 nM | < 1000 nM | > 60% | –
8 | Cc1cccc(C)c1-c1cc2nc(c1)Oc1cccc(c1)C(=O)Nc1cccc(c1)S(=O)(=O)N2 [Compound 76, 5-(2,6-Dimethylphenyl)-9,9-dioxo-2-oxa-9λ^6-thia-8,15,23-triazatetracyclo[15.3.1.13,7.110,14]tricosa-1(21),3(23),4,6,10,12,14(22),17,19-nonaen-16-one] | + (+ is <30%) | – | – | < 30% | –
9 | CC(C)c1ccccc1-c1cc2nc(n1)NS(=O)(=O)c1cccc(c1)NC(=O)c1cccc(c1)O2 [Compound 81] | ++ (++ is 30-60%) | 3000 to 30000 nM | < 1000 nM | > 60% | –
10 | Cc1cccc(C)c1-c1cc2nc(n1)NS(=O)(=O)c1cccc(n1)NC(=O)C1CC(CN(CCC(C)(C)C3CC3)C1)O2 (stereo not drawn) [Compound 15, 5-(3-Cyclopropyl-3-methylbutyl)-19-(2,6-dimethylphenyl)-2-oxa-15λ^6-thia-5,9,16,18,21,22-hexaazatetracyclo[15.3.1.13,7.110,14]tricosa-1(21),10,12,14(22),17,19-hexaene-8,15,15-trione] | ++ (++ is 30-60%) | < 1000 nM | < 1000 nM | > 60% | –
11 | Cc1cccc(C)c1-c1cc2nc(n1)NS(=O)(=O)c1cccc(c1)NC(=O)[C@@H]1C[C@@H](CN(CCN(C)C)C1)O2 [Compound 20] | + (+ is <30%) | 3000 to 30000 nM | – | – | –
12 | Cc1cccc(C)c1-c1cc2nc(n1)NS(=O)(=O)c1cccc(c1)NC(=O)C1CN(C(=O)OC(C)(C)C)CCC1O2 (stereo not drawn) [Compound 78] | ++ (++ is 30-60%) | 1000 to 3000 nM | – | – | –
13 | Cc1cccc(C)c1-c1cc2nc(n1)NS(=O)(=O)c1cccc(c1)NC(=O)[C@@H]1C[C@@H](CN(S(=O)(=O)CC(C)(C)C)C1)O2 [Compound 19] | ++ (++ is 30-60%) | < 1000 nM | – | – | –
14 | Cc1cccc(C)c1-c1cc2nc(n1)NS(=O)(=O)c1cccc(n1)NC(=O)C1CC(CN(C(=O)OC(C)(C)C)C1)O2 (stereo not drawn) [Compound 18] | +++ (+++ is >60%) | 3000 to 30000 nM | – | – | –
15 | Cc1cccc(C)c1-c1cc2nc(n1)NS(=O)(=O)c1cccc(c1)NC(=O)C1CC(O2)C(C)(C)N(Cc2ccccc2)C1 (single isomer, unassigned) [Compound 74, 5-benzyl-19-(2,6-dimethylphenyl)-4,4-dimethyl-2-oxa-15λ^6-thia-5,9,16,18,21-pentaazatetracyclo[15.3.1.13,7.110,14]tricosa-1(21),10,12,14(22),17,19-hexaene-8,15,15-trione] | + (+ is <30%) | – | – | – | –
16 | CCCCN1C[C@@H]2C[C@H](C1)C(=O)Nc1cccc(c1)S(=O)(=O)Nc1nc(cc(-c3c(C)cccc3C)n1)O2 [Compound 40] | ++ (++ is 30-60%) | < 1000 nM | – | – | –
